From PubChem BioAssay (NCI)
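Results reflect a 48-hour exposure of cells in 96-well plates to compound at five concentrations. TGI: total growth inhibition.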

Assays:
Assay in all cases: NCI anticancer screen, dose series, 48 h
[1] = system: UACC-257 melanoma
[2] = system: OVCAR-3 ovarian
[3] = system: U251 CNS
[4] = system: MOLT-4 leukemia
[5] = system: SW-620 colon
[6] = system: HCT-116 colon
[7] = system: CCRF-CEM leukemia
[8] = system: HT29 colon
[9] = system: NCI-H522 lung
[10] = system: KM12 colon
[11] = system: IGROV1 ovarian
[12] = system: MALME-3M melanoma
[13] = system: A498 renal
[14] = system: HCC-2998 colon
[15] = system: TK-10 renal
[16] = system: OVCAR-8 ovarian
[17] = system: 786-0 renal
[18] = system: HL-60(TB) leukemia
[19] = system: LXFL 529 NSCLC
[20] = system: SF-268 CNS
[21] = system: UACC-62 melanoma
[22] = system: SNB-78 CNS
[23] = system: OVCAR-5 ovarian
[24] = system: NCI-H23 lung
[25] = system: SF-295 CNS
[26] = system: A549 NSCLC
[27] = system: SR leukemia
[28] = system: LOX IMVI melanoma
[29] = system: SK-OV-3 ovarian
[30] = system: HOP-62 NSCLC
[31] = system: SN12C renal
[32] = system: NCI-H460 lung
[33] = system: CAKI-1 renal
[34] = system: HOP-92 NSCLC
[35] = system: UO-31 renal
[36] = system: HCT-15 colon
[37] = system: COLO 205 colon
[38] = system: SF-539 CNS
[39] = system: DMS 273 small cell lung
[40] = system: ACHN renal
[41] = system: SK-MEL-28 melanoma
[42] = system: SNB-75 CNS
[43] = system: SK-MEL-2 melanoma
[44] = system: XF 498 CNS
[45] = system: SNB-19 CNS
[46] = system: RXF-631 renal
[47] = system: DLD-1 colon
[48] = system: K-562 leukemia
[49] = system: M14 melanoma
[50] = system: SK-MEL-5 melanoma
[51] = system: OVCAR-4 ovarian
[52] = system: KM20L2 colon
[53] = system: M19-MEL melanoma
[54] = system: RXF 393 renal
[55] = system: DMS 114 small cell lung

`COC1=NN2C(OC)(c3ccccc3)c3c(-c4ccccc4)sc(-c4ccccc4)c3C2(c2ccccc2)S1` (centres undefined) was tested, and the TGI [1] was over 100 µM, the TGI [2] was over 10 µM and the TGI [3] was over 100 µM. It also gave a TGI [4] of over 100 µM, a TGI [5] of over 100 µM and a TGI [6] of over 100 µM. It also gave a TGI [7] of over 100 µM, a TGI [8] of over 100 µM and a TGI [9] of over 100 µM. It also gave a TGI [10] of over 100 µM, a TGI [11] of over 100 µM and a TGI [12] of over 100 µM. The TGI [13] was over 100 µM, the TGI [14] was over 100 µM and the TGI [15] was over 100 µM. The TGI [16] was over 100 µM, the TGI [17] was over 100 µM and the TGI [18] was over 100 µM. The TGI [19] was over 100 µM, the TGI [20] was over 100 µM and the TGI [21] was over 100 µM. It also gave a TGI [22] of over 100 µM, a TGI [23] of over 100 µM and a TGI [24] of over 100 µM. It also gave a TGI [25] of over 100 µM, a TGI [26] of over 100 µM and a TGI [27] of over 100 µM. It also gave a TGI [28] of over 100 µM, a TGI [29] of over 100 µM and a TGI [30] of over 10 µM. It also gave a TGI [31] of over 100 µM, a TGI [32] of over 100 µM and a TGI [33] of over 100 µM. The TGI [34] was over 100 µM, the TGI [35] was over 100 µM and the TGI [36] was over 100 µM. The TGI [37] was over 100 µM, the TGI [38] was over 100 µM and the TGI [39] was over 100 µM. The TGI [40] was over 100 µM, the TGI [41] was over 100 µM and the TGI [42] was over 100 µM. The TGI [43] was over 100 µM, the TGI [44] was over 100 µM and the TGI [45] was over 100 µM. For the same compound, the TGI [46] was over 100 µM, the TGI [47] was over 100 µM and the TGI [48] was over 100 µM. It also gave a TGI [49] of over 10 µM.
`COc1cc(/C=C(\NC(=O)c2ccccc2)c2nc3ccc([N+](=O)[O-])cc3[nH]2)cc(OC)c1OC` gave a TGI [2] of over 100 µM, a TGI [3] of over 100 µM and a TGI [4] of over 100 µM. It also gave a TGI [50] of over 100 µM, a TGI [5] of over 100 µM and a TGI [51] of over 100 µM. It also gave a TGI [7] of over 100 µM, a TGI [52] of over 100 µM and a TGI [8] of over 100 µM. For the same compound, the TGI [53] was over 100 µM, the TGI [9] was over 100 µM and the TGI [10] was over 100 µM. The TGI [11] was over 100 µM, the TGI [12] was over 100 µM and the TGI [14] was over 100 µM. For the same compound, the TGI [54] was over 100 µM, the TGI [15] was over 100 µM and the TGI [16] was over 100 µM. The TGI [19] was over 100 µM, the TGI [21] was over 100 µM and the TGI [22] was over 100 µM. For the same compound, the TGI [23] was over 100 µM, the TGI [24] was over 100 µM and the TGI [25] was over 100 µM. For the same compound, the TGI [55] was over 100 µM, the TGI [27] was over 100 µM and the TGI [29] was over 100 µM. It also gave a TGI [31] of over 100 µM, a TGI [33] of over 100 µM and a TGI [34] of over 100 µM. For the same compound, the TGI [35] was 89.5 µM, the TGI [36] was over 100 µM and the TGI [37] was over 100 µM. For the same compound, the TGI [41] was over 100 µM, the TGI [43] was over 100 µM and the TGI [44] was over 100 µM. It also gave a TGI [45] of over 100 µM, a TGI [47] of over 100 µM and a TGI [48] of over 100 µM. The TGI [49] was over 100 µM.
